Measurements: patent publication US12516082B2, “Metal-carbohydrate complex” (ARCZONE K.K., priority 2020, dated 2026)

Key:
Format in all cases: cell-based, mouse
MIN6 [1] = assay: Proportion of dead cells by propidium iodide, MIN6 at 4 DIV in culture
Description: (§1) A mouse pancreatic β-cell tumorigenic (insulinoma) cell line MIN6 (Miyazaki J. et al., Endocrinology 127:126-132, 1990) was used to perform the following experiment. Here, all experiments which include an experiment where the above-described compound B (hereinafter called LGG) is administered and an experiment where the above-described compound A (hereinafter called DGG) is administered and in which about 1,000 MIN6 cells were placed in 96 wells were carried out by taking care to avoid external disturbances as much as possible.
MIN6 cells derived from mouse pancreas are a heterogeneous cell population (Yamato, E. et al., PLOS One 8: e61211, 2013). Up to about 4 to 5 DIV after the start of culture, normal cells, that is, insulin-producing β-cells of pancreatic islets of Langerhans accounted for the majority. […]
Specifically, LGG and DGG were administered to MIN6 at 0 to 1,000 μm at 4 DIV in culture, and after the elapse of 90 minutes, the proportion of the number of dead cells evaluated using a dead cell marker propidium iodide (PI) was measured as a function of their concentrations. […] However, the vertical axis is a value (%) normalized by the fluorescence intensity of the total number of cells assuming that the number of dead cells at a concentration of 1,000 μm is the total number of cells in each well. […]

MIN6 [2] = assay: Optical microscope observation of cell conditions, MIN6 at 5 DIV, with or without PHT
Description: as §1
Here, a further experiment was carried out to verify whether the LGG-induced cell death clearly shown in FIG. 2 was indeed caused by the intracellular uptake of LGG. Specifically, whether the cell death is inhibited was examined by administering LGG in the presence of phloretin (hereinafter called PHT).
PHT functions as an inhibitor on various membrane transport proteins such as water channel proteins or glucose transporter proteins (Ono K. et al., Cancers 12:850, 2020). […] That is, it is estimated that, when an L-glucose derivative is applied to MIN6 cells in the presence of PHT, incorporation of LGG into “cells into which the L-glucose derivative can be incorporate” which are partially present in a heterogeneous cell population is inhibited by the effect of inhibiting a non-transporter type transport mechanism by PHT. […]

MIN6 [3] = assay: Calcein fluorescence intensity (activity of living cells), MIN6 at 5 DIV, with or without PHT; conditions: FIG. 5
Description: as §1
Furthermore, the effect of LGG on cells was quantitatively analyzed in the presence or absence of PHT. Specifically, similarly to the cases of FIG. 3 described above, the fluorescence intensity of calcein, which is a fluorescent marker representing activities of living cells, was evaluated for the case (A) where LGG was not administered to MIN6 (at 5 DIV) (control experiment), the case (B) where 100 μm LGG was administered thereto for 10 minutes (LGG), and the case (C) where 100 μm LGG was administered thereto for 10 minutes after 150 μm PHT was administered in advance. In FIG. 5, the error bars indicate standard errors SE, and the numerical values in parentheses indicate the number of ROIs analyzed. […]

MIN6 [4] = assay: Proportion of dead cells, MIN6 at long DIV (18 to 19 DIV) in culture; conditions: MIN6 at 19 DIV for LGG, 18 DIV for DGG; administered for 10 minutes; FIG. 6
Description: as §1
Specifically, LGG and DGG were administered to MIN6 at 0 to 1,000 μm at 4 DIV in culture, and after the elapse of 90 minutes, the proportion of the number of dead cells evaluated using a dead cell marker propidium iodide (PI) was measured as a function of their concentrations. […] However, the vertical axis is a value (%) normalized by the fluorescence intensity of the total number of cells assuming that the number of dead cells at a concentration of 1,000 μm is the total number of cells in each well. The broken line is an eye guide.
Furthermore, the same experiment as that of FIG. 2 was carried out for MIN6 at long DIV in culture. However, in either case, observations were carried out after DGG or LGG was administered for 10 minutes.

**Q.** With `CC[P+](CC)(CC)[Au-][S]C1OC(CO)C(O)C(O)C1O` [LGG, (1-thio-β-L-glucopyranoside) (S-triethylphosphine) gold (I)] as the molecule, how does the “safety against normal cells relative to DGG” value (MIN6 [1]; MIN6 at 4 DIV (mostly normal β-cells), from 50% effective doses) read?
**A.** approximately 10 times

**Q.** And the “concentration above which cell death evaluated using PI becomes detectable” value (MIN6 [1]; MIN6 at 4 DIV, 90 minutes after administration, interpolation of FIG. 2)?
**A.** 10 μm

**Q.** What about the “cell conditions under optical microscope” value (MIN6 [2]; 100 μm LGG for 10 minutes after 150 μm PHT in advance, FIG. 3C, 4f-4i) of the same molecule?
**A.** cells indicating deterioration of the cell conditions are hardly recognized

**Q.** And the “cell conditions under optical microscope” value (MIN6 [2]; 100 μm LGG for 10 minutes, no PHT, FIG. 3B, 4e)?
**A.** a part of cytoplasm in some cells protrudes outside the cells

**Q.** What about the “fluorescence intensity of calcein (cell activity): decrease due to LGG in presence of PHT” value (MIN6 [3]; 100 μm LGG for 10 minutes after 150 μm PHT in advance) of the same molecule?
**A.** significantly inhibited by PHT

**Q.** And the “fluorescence intensity of calcein (cell activity) versus control” value (MIN6 [3]; 100 μm LGG for 10 minutes, no PHT)?
**A.** significantly reduced activities of MIN6 cells

**Q.** What about the “concentration dependence of the proportion of the number of dead cells” value (MIN6 [4]) of the same molecule?
**A.** almost matches the DGG concentration dependence
